From patent publication US20100016232A1, “Treatment Of Inflammatory Diseases With Mammal Beta Defensins” (Novozymes A/S, priority 2008, published 2010)
Marks after values point to notes of the source that are not given here. Where no end group is shown, it is not given here.

How the values were obtained:
PBMC = PBMC viability, MTS assay; assay type: cell-based, human; conditions: 24 h
Description: Peripheral blood was drawn from healthy volunteers (with approval from the relevant ethical committee in Denmark). Heparinized blood was diluted 1/1 v/v with RPMI and were subjected to Ficoll density centrifugation within 2 h of drawing. Plasma was collected from the top from individual donors and was kept on ice until it was used at 2% in the culture medium (autologous culture medium). Isolated PBMC were resuspended in autologous culture medium and seeded in 96-well culture plates with 255.000 cells per well in a total of 200 μl. […] The concentrations used for stimulation were optimized on 3 different donors in initial experiments, for LPS two different concentrations were used to be sure to be on a cytokine level that is possible to modulate. In some experiments PBMC were treated with Dexamethason and Indomethacin alone and together with LPS or LTA as a control on downregulation of inflammatory cytokines. The supernatants were collected after incubation at 37° C. for 24 hours, and stored at −80° C. until cytokine measurement. Viability was measured by Alamar Blue (Biosource, DALL 1100) in all experiments and in some cases also by MTS (Promega) according to manufacturer's instruction and was in some experiments also judged by counting of the cells by a Nucleocounter.

[1] = system: TNF production in supernatants from immature dendritic cells; test: TNF production, immature dendritic cells (MUTZ-3 derived); assay type: cell-based, human
Description: To generate a dendritoid cell line, the human myeloid leukaemia cell lines MUTZ-3 (1×10^5 cells/ml) was differentiated for 7 days in the presence of rhGM-CSF (150 ng/ml) and rhIL-4 (50 ng/ml) into immature DCs. Medium was exchanged every 2-3 days.
Cytokine production in supernatants was measured by flow cytometry with a human inflammation cytometric bead array (CBA) according to manufacturer's instructions (BD) on a FACSarray flow cytometer. The following cytokines were measured: IL-8, IL-1β, IL-10, TNF, IL-12 p70, IL-6. In some experiments, cytokines were measured by ELISA kits from R&D systems (IL-10, TNF-α, IL-1β) according to the manufacturer' instruction.

[2] = system: collagen-induced arthritis (CIA) in the mouse; test: Collagen-induced rheumatoid arthritis model, clinical arthritis score; assay type: in vivo; parameters: key: each paw scored 0-4 by ascending severity; total summed over paws
Description: All animals were subjected on Day 0 of the study (study commencement) to an intradermal injection into the tail of 0.1 ml Type II Collagen/CFA emulsion (200 μg collagen per mouse) under light Isoflurane anesthesia, using a plastic syringe. The location of injection was at an approximate caudal distance of about 1 cm from the base of the tail. A collagen challenge (200 μg/mouse) was presented to the animals by IP injection of collagen and PBS on Day 21.
Treatments were commenced on day 14 of the study and continued once daily throughout. All surviving mice were terminated on study day 42.
Mice were examined for signs of arthritogenic responses in peripheral joints on study day 0, 14, 21 and thereafter five times weekly until termination of the study. Arthritis reactions were reported for each paw according to a 0-4 scale in ascending order of severity as shown below:
In accordance with Home Office regulations mice with a total clinical score of equal to or greater than 12 were culled due to arthritis severity. The clinical score of these mice at termination was carried forward in the analysis for the remainder of the study in order that the data was not artificially skewed by the removal of high scoring mice.

hBD2: human beta defensin 2, SEQ ID NO:2; produced recombinantly in E. coli (Example 1); hBD2 of Tables 16-18 was prepared by chemical synthesis (GIGDPVTCLKSGAICHPVFCPRRYKQIGTCGLPGTKCCKKP; ends and bridges not checked; cysteine pairing not given here; listed as Homo sapiens)
Viability, MTS (PBMC; LPS 0.6 ng/ml, hBD2 1 μg/ml): 1.5 Abs 490 nm
Viability, MTS (PBMC; LPS 0.6 ng/ml, hBD2 10 μg/ml): 2.0 Abs 490 nm
Viability, MTS (PBMC; LPS 0.6 ng/ml, hBD2 100 μg/ml): 1.6 Abs 490 nm
Viability, MTS (PBMC; LPS 20 ng/ml, hBD2 1 μg/ml): 1.6 Abs 490 nm
Viability, MTS (PBMC; LPS 20 ng/ml, hBD2 10 μg/ml): 1.8 Abs 490 nm
Viability, MTS (PBMC; LPS 20 ng/ml, hBD2 100 μg/ml): 1.9 Abs 490 nm
Viability, MTS (PBMC; Medium, hBD2 1 μg/ml): 1.3 Abs 490 nm
Viability, MTS (PBMC; Medium, hBD2 10 μg/ml): 1.5 Abs 490 nm
Viability, MTS (PBMC; Medium, hBD2 100 μg/ml): 1.2 Abs 490 nm
TNF ([1]; LPS 1.5 μg/ml, hBD2 1 μg/ml): 18.04 pg/mL
TNF ([1]; LPS 1.5 μg/ml, hBD2 10 μg/ml): 13.8 pg/mL
TNF ([1]; LPS 1.5 μg/ml, hBD2 100 μg/ml): 7.66 pg/mL
TNF ([1]; LTA 1.5 μg/ml, hBD2 1 μg/ml): 0.00 pg/mL
TNF ([1]; LTA 1.5 μg/ml, hBD2 10 μg/ml): 2.76 pg/mL
TNF ([1]; LTA 1.5 μg/ml, hBD2 100 μg/ml): 5.22 pg/mL
TNF ([1]; Medium, hBD2 1 μg/ml): 4.64 pg/mL
TNF ([1]; Medium, hBD2 10 μg/ml): 1.89 pg/mL
TNF ([1]; Medium, hBD2 100 μg/ml): 0.00 pg/mL
Mean total arthritis score, peak ([2]; 0.1 mg/kg i.v. once daily from day 14 (Group E), study day 40): 9.0±0.77
Mean total arthritis score, peak ([2]; 1 mg/kg i.v. once daily from day 14 (Group D), study day 41): 5.2±1.11
Mean total arthritis score, peak ([2]; 10 mg/kg i.v. once daily from day 14 (Group C), study day 40): 5.0±1.04
Mean Arthritic Score ([2]; Group C, 10 mg/kg IV once daily, Study Day 0): 0.0
Mean Arthritic Score ([2]; Group C, 10 mg/kg IV once daily, Study Day 14): 1.7
Mean Arthritic Score ([2]; Group C, 10 mg/kg IV once daily, Study Day 21): 3.1
Mean Arthritic Score ([2]; Group C, 10 mg/kg IV once daily, Study Day 22): 4.3
Mean Arthritic Score ([2]; Group C, 10 mg/kg IV once daily, Study Day 23): 3.3
Mean Arthritic Score ([2]; Group C, 10 mg/kg IV once daily, Study Day 26): 4.1
Mean Arthritic Score ([2]; Group C, 10 mg/kg IV once daily, Study Day 27): 4.1
Mean Arthritic Score ([2]; Group C, 10 mg/kg IV once daily, Study Day 28): 4.1
Mean Arthritic Score ([2]; Group C, 10 mg/kg IV once daily, Study Day 29): 4.4
Mean Arthritic Score ([2]; Group C, 10 mg/kg IV once daily, Study Day 30): 4.9
Mean Arthritic Score ([2]; Group C, 10 mg/kg IV once daily, Study Day 33): 4.8
Mean Arthritic Score ([2]; Group C, 10 mg/kg IV once daily, Study Day 34): 4.9
Mean Arthritic Score ([2]; Group C, 10 mg/kg IV once daily, Study Day 35): 4.9
Mean Arthritic Score ([2]; Group C, 10 mg/kg IV once daily, Study Day 36): 4.8
Mean Arthritic Score ([2]; Group C, 10 mg/kg IV once daily, Study Day 37): 4.7
Mean Arthritic Score ([2]; Group C, 10 mg/kg IV once daily, Study Day 40): 5.0
Mean Arthritic Score ([2]; Group C, 10 mg/kg IV once daily, Study Day 41): 4.8*
Mean Arthritic Score ([2]; Group D, 1 mg/kg IV once daily, Study Day 0): 0.0
Mean Arthritic Score ([2]; Group D, 1 mg/kg IV once daily, Study Day 14): 0.6
Mean Arthritic Score ([2]; Group D, 1 mg/kg IV once daily, Study Day 21): 2.1
Mean Arthritic Score ([2]; Group D, 1 mg/kg IV once daily, Study Day 22): 2.3
Mean Arthritic Score ([2]; Group D, 1 mg/kg IV once daily, Study Day 23): 2.0
Mean Arthritic Score ([2]; Group D, 1 mg/kg IV once daily, Study Day 26): 2.0
Mean Arthritic Score ([2]; Group D, 1 mg/kg IV once daily, Study Day 27): 2.0
Mean Arthritic Score ([2]; Group D, 1 mg/kg IV once daily, Study Day 28): 2.3
Mean Arthritic Score ([2]; Group D, 1 mg/kg IV once daily, Study Day 29): 2.4
Mean Arthritic Score ([2]; Group D, 1 mg/kg IV once daily, Study Day 30): 2.7
Mean Arthritic Score ([2]; Group D, 1 mg/kg IV once daily, Study Day 33): 4.0
Mean Arthritic Score ([2]; Group D, 1 mg/kg IV once daily, Study Day 34): 4.1
Mean Arthritic Score ([2]; Group D, 1 mg/kg IV once daily, Study Day 35): 4.0
Mean Arthritic Score ([2]; Group D, 1 mg/kg IV once daily, Study Day 36): 4.1
Mean Arthritic Score ([2]; Group D, 1 mg/kg IV once daily, Study Day 37): 4.2
Mean Arthritic Score ([2]; Group D, 1 mg/kg IV once daily, Study Day 40): 4.7*
Mean Arthritic Score ([2]; Group D, 1 mg/kg IV once daily, Study Day 41): 5.2
Mean Arthritic Score ([2]; Group E, 0.1 mg/kg IV once daily, Study Day 0): 0.0
Mean Arthritic Score ([2]; Group E, 0.1 mg/kg IV once daily, Study Day 14): 1.2
Mean Arthritic Score ([2]; Group E, 0.1 mg/kg IV once daily, Study Day 21): 3.2
Mean Arthritic Score ([2]; Group E, 0.1 mg/kg IV once daily, Study Day 22): 3.6
Mean Arthritic Score ([2]; Group E, 0.1 mg/kg IV once daily, Study Day 23): 3.2
Mean Arthritic Score ([2]; Group E, 0.1 mg/kg IV once daily, Study Day 26): 3.7
Mean Arthritic Score ([2]; Group E, 0.1 mg/kg IV once daily, Study Day 27): 4.1
Mean Arthritic Score ([2]; Group E, 0.1 mg/kg IV once daily, Study Day 28): 4.4
Mean Arthritic Score ([2]; Group E, 0.1 mg/kg IV once daily, Study Day 29): 5.0
Mean Arthritic Score ([2]; Group E, 0.1 mg/kg IV once daily, Study Day 30): 5.9
Mean Arthritic Score ([2]; Group E, 0.1 mg/kg IV once daily, Study Day 33): 7.3
Mean Arthritic Score ([2]; Group E, 0.1 mg/kg IV once daily, Study Day 34): 7.8
Mean Arthritic Score ([2]; Group E, 0.1 mg/kg IV once daily, Study Day 35): 8.0
Mean Arthritic Score ([2]; Group E, 0.1 mg/kg IV once daily, Study Day 36): 8.2
Mean Arthritic Score ([2]; Group E, 0.1 mg/kg IV once daily, Study Day 37): 8.7
Mean Arthritic Score ([2]; Group E, 0.1 mg/kg IV once daily, Study Day 40): 9.0
Mean Arthritic Score ([2]; Group E, 0.1 mg/kg IV once daily, Study Day 41): 8.8
